Laboratory results taken from patent US20040038855A1 (priority 1999, published 2004).
Where a name gives a salt, the structure may show the parent alone. Read-outs that look alike come from different tables or passages of the source.

Legend:
[1] = target: T1, human 5HT1A receptor (Homo sapiens, UniProt P08908); assay: Binding affinity at the human 5HT1A receptor (3H8OHDPAT); conditions: Table 3e; read-out: h5HT1A Ki
T1 construct: The cDNA corresponding to the 5HT1A receptor open reading frames and variable noncoding 5′ and 3′regions; expressed in transfected cells; host or cells: COS7 cells, transient, DEAE-dextran, vector pCEXV3
T1 sequence (P08908 1-422): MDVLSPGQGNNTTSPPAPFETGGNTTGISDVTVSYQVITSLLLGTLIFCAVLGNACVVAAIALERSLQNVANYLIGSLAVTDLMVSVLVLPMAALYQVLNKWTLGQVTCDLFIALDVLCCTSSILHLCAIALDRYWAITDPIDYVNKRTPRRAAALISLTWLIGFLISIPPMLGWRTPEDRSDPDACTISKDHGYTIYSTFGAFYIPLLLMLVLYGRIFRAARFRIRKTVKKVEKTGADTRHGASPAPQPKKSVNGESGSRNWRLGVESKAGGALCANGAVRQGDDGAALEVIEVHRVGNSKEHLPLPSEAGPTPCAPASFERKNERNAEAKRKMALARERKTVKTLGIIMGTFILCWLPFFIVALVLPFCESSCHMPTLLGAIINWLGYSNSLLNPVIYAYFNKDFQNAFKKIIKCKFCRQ
Description: 5HT1A Receptor: The cDNA corresponding to the 5HT1A receptor open reading frames and variable noncoding 5′ and 3′regions, was cloned into the eukaryotic expression vector pCEXV3. These constructs were transfected transiently into COS7 cells by the DEAEdextran method (Cullen, 1987), and harvested after 72 hours. Radioligand binding assays were performed as described above for the 5HT2A receptor, except that ^3H8OHDPAT was used as the radioligand and nonspecific binding was determined by the addition of 10 μM mianserin.

[2] = target: T2, human Alpha-1a Adrenergic receptor (Homo sapiens, UniProt P35348); assay: Binding affinity at the human alpha-1A adrenergic receptor
T2 construct: expressed in transfected cells
T2 sequence (P35348 1-466): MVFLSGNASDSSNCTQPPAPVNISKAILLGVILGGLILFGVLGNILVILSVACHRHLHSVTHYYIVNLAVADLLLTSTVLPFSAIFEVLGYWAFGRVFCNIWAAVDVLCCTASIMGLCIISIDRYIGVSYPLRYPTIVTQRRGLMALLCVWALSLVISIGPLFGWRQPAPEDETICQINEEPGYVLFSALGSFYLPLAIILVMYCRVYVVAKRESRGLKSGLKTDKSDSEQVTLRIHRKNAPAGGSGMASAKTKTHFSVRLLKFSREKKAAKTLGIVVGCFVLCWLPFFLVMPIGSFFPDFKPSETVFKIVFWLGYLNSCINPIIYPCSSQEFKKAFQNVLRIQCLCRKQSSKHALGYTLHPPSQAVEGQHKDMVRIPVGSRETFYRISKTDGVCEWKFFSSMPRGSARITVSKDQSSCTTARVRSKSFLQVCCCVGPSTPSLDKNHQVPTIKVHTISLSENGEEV
Procedure, shortened: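 Receptor binding read-out throughout; membranes expressing human D1 or D2 receptor were used for those two targets.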

[3] = target: rat D3 receptor (Rattus norvegicus, UniProt P19020); assay: Binding affinity at the rat dopamine D3 receptor; conditions: Table 3d; read-out: rD3 Ki
Text: (§1) Other receptors: Cell membranes expressing human dopamine D1, D2, D4 and rat D3 receptors were purchased through BioSignal, Inc. (Montreal, Canada). Binding assays using the histamine H1 receptor; dopamine receptors; and α1A, α1B, and α2 adrenergic receptors may be carried out according to the procedures described in U.S. Pat. No. 5,780,485, the disclosure of which is hereby incorporated by reference in its entirety into this application. Binding assays using the dopamine D5 receptor may be carried out according to the procedures described in U.S. Pat. No. 5,882,855, the disclosure of which is hereby incorporated by reference in its entirety into this application. Binding assays for the human α1D adrenergic receptor may be carried out according to the procedures described in U.S. Pat. No. 6,156,518, the disclosure of which is hereby incorporated by reference in its entirety into this application.

[4] = target: T3, human Dopamine D2 receptor (Homo sapiens, UniProt P14416); assay: Binding affinity at the human dopamine D2 receptor; conditions: Table 3d; * = >50000; read-out: hD2 Ki
T3 construct: purchased BioSignal, Inc. (Montreal, Canada)
Procedure, shortened: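 Binding to α2A and D5 receptors is run by established receptor-binding procedures; human D1 and D2 binding uses membranes prepared from receptor-expressing cells.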

[5] = target: T4, human dopamine D5 receptor (Homo sapiens, UniProt P21918); assay: Binding affinity at the human dopamine D5 receptor; conditions: Table 3d; read-out: hD5 Ki
T4 construct: expressed in transfected cells
Text: as §1

[6] = target: T5, human dopamine D1 receptor (Homo sapiens, UniProt P21728); assay: Binding affinity at the human dopamine D1 receptor; conditions: Table 3d; read-out: hD1 Ki
T5 construct: purchased BioSignal, Inc. (Montreal, Canada)
Text: as §1

[7] = target: T6, human 5HT2A receptor (Homo sapiens, UniProt P28223); assay: Binding affinity at the human 5HT2A receptor ([3H]ketanserin); conditions: Table 3e; read-out: h5HT2A Ki
T6 construct: expressed in transfected cells; host or cells: COS7 cells, transient, DEAE dextran, vector pCEXV3
Description: Human 5HT2A Receptor: The coding sequence of the human 5HT2A receptor was obtained from a human brain cortex cDNA library, and cloned into the cloning site of pCEXV3 eukaryotic expression vector. This construct was transfected into COS7 cells by the DEAE dextran method (Cullen, 1987). Cells were harvested after 72 hours and lysed by sonication in 5 mM Tris HCl, 5 mM EDTA, pH 7.5. The cell lysates were subjected to centrifugation at 1000 rpm for 5 minutes at 4° C., and the supernatant was subjected to centrifugation at 30,000×g for 20 minutes at 4° C. The pellet was suspended in 50 mM Tris HCl buffer (pH 7.7 at room temperature) containing 10 mM MgSO4, 0.5 mM EDTA, and 0.1% ascorbate. […] Nonspecific binding was defined by the addition of 10 μM mianserin. The bound radioligand was separated by filtration through GF/B filters using a cell harvester.

T3 sequence (P14416 whole entry): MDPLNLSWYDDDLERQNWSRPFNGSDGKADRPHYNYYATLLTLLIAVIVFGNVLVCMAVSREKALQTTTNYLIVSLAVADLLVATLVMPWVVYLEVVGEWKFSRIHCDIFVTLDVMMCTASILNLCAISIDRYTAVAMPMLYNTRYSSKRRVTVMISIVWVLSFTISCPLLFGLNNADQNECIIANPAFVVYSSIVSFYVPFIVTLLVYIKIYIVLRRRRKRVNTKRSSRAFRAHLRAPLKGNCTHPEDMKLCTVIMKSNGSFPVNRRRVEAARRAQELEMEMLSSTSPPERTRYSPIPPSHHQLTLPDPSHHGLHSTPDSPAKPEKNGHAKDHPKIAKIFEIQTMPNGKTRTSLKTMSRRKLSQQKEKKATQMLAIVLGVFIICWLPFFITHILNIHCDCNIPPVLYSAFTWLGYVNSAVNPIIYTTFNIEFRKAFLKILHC
T5 sequence (P21728 whole entry): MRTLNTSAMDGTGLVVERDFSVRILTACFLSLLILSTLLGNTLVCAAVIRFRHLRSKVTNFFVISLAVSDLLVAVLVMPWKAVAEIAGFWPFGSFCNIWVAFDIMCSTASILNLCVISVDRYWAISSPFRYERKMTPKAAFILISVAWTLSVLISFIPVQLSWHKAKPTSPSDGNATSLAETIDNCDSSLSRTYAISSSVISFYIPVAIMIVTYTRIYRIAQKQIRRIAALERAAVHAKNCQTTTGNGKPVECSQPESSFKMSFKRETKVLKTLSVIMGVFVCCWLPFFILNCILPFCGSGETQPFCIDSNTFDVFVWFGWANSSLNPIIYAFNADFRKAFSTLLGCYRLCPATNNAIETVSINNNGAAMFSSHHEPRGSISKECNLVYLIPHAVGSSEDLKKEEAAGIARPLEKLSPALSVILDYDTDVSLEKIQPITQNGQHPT
T4 sequence (P21918 whole entry): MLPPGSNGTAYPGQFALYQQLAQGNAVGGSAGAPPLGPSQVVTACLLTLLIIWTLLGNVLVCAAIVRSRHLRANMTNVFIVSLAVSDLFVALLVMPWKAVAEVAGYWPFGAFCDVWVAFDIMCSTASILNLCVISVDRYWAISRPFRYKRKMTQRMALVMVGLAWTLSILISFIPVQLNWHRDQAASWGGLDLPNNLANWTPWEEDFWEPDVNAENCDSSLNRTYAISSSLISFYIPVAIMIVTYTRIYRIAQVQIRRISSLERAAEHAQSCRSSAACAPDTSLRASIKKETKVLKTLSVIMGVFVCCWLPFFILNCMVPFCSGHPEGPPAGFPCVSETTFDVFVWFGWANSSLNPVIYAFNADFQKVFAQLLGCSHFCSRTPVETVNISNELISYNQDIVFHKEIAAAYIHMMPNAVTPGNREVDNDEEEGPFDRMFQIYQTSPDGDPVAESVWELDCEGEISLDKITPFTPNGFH
Chain of rat D3 receptor (P19020 whole entry): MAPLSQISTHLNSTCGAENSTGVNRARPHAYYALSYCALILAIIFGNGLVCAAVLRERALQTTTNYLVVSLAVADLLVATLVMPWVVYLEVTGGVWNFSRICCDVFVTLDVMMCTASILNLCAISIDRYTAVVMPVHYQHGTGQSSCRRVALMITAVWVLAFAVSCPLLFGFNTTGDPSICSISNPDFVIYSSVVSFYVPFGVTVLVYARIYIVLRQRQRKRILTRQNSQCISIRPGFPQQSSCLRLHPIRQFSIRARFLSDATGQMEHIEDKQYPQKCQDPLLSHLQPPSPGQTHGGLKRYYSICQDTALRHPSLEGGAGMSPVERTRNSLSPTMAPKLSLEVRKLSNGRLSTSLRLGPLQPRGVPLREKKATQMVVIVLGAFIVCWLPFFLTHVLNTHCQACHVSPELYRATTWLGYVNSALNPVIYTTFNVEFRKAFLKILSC
T6 sequence (P28223 whole entry): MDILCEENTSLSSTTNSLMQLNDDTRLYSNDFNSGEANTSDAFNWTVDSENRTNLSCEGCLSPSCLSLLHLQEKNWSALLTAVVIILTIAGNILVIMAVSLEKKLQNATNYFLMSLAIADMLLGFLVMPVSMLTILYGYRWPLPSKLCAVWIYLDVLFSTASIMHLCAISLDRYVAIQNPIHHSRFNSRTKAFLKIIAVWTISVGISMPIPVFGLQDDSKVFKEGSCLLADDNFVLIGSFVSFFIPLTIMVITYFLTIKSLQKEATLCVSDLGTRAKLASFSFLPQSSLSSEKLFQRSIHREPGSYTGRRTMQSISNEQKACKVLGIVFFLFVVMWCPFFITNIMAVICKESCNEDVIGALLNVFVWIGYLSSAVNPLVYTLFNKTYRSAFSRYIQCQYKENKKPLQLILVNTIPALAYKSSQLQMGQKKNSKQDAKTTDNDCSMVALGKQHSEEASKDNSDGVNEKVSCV

Molecule	Ki [1]	Ki ([2]; Table 3d, read-out: hα1A Ki)	Ki [3]	Ki [4]	Ki [5]	Ki [6]	Ki [7]	Ki [2]
2-(3,4-DIFLUOROPHENYL)4,5-DIHYDROIMIDAZOLE-1-CARBOXYLIC ACID {3-[4-PHENYL-4-(4-BROMO-5-METHYLTHIOPNEN-2-YL)]-PROPYL}-AMIDE [Example 19]	7.94 µM	0.0025 µM	–	–	–	–	–	–
COC(=O)C1=C(C)NC(=O)N(C(=O)NCCCN2CCC3(CC2)OCc2ccccc23)C1c1ccc2nonc2c1 (single isomer, unassigned) [Example 18, HYDROCHLORIDE]	1.24 µM	–	1.22 µM	0.624 µM	2.54 µM	0.596 µM	1.57 µM	0.0017 µM
COCC1=C(C(=O)OC)C(c2ccc(F)c(F)c2)N(C(=O)NCCCN2CCC(c3cccc(NC(C)=O)c3)CC2)C(=O)N1 (single isomer, unassigned; (-)) [Example 1, (−)-1,2,3,6-TETRAHYDRO-1-{N-[4-(3,-ACETAMIDO)-PHENYLPIPERIDIN-1-YL]PROPYL}CARBOXAMIDO-4-METHOXYMETHYL-6-(3,4-DIFLUORO-PHENYL)-2-OXOPYRIMIDINE-5-CARBOXYLIC ACID METHYL ESTER]	–	2.21 µM	–	–	–	–	–	–
COCC1=C(C(=O)OC)[C@H](c2ccc(F)c(F)c2)N(C(=O)NCCCN2CCC(c3cccc(NC(C)=O)c3)CC2)C(=O)N1 [Example 10, (+)-1,2,3,6-TETRAHYDRO-1-{N-[4-(3,-ACETAMIDO)-PHENYLPIPERIDIN-1-YL]PROPYL}CARBOXAMIDO-4-METHOXYMETHYL-6-(3,4-DIFLUORO-PHENYL)-2-OXOPYRIMIDINE-5-CARBOXYLIC ACID METHYL ESTER]	–	0.0458 µM	5.89 µM	> 50 µM	0.773 µM	1.93 µM	–	–
COC(=O)C1=C(C)NC(=O)N(C(=O)NCCCN2CCC3(CC2)OCc2ccccc23)C1c1ccc(F)c(F)c1 (centres unmarked) [Example 20, 4-(3,4-DIFLUORPHENYL)-6-METHYL-2-OXO-3-{[3-(4-SPIRO[ISOBENZOFURAN-1(3H),4′-PIPERIDINE]PROPYL}-1,2,3,4-TETRAHYDROPYRIMIDINE-5-CARBOXYLIC ACID METHYL ESTER]	2.19 µM	–	–	–	–	–	2.82 µM	–
